Legend:
[1] = system: Diamond Back Moth (Plutella xylostella); assay: Diamond back moth leaf-dip test; format: in vivo; conditions: cabbage leaves dipped, 3rd instar larvae, 72 hours after treatment, read-out: mortality in comparison with untreated controls
Procedure: B.1 Diamond Back Moth (Plutella xylostella)
The active compound was dissolved at the desired concentration in a mixture of 1:1 (vol:vol) distilled water:aceteone. Surfactant (Kinetic HV) was added at a rate of 0.01% (vol/vol). The test solution was prepared at the day of use.
Leaves of cabbage were dipped in test solution and air-dried. Treated leaves were placed in petri dishes lined with moist filter paper and inoculated with ten 3rd instar larvae. Mortality was recorded 72 hours after treatment. Feeding damages were also recorded using a scale of 0-100%.

[2] = system: Green Peach Aphid (Myzus persicae); assay: Green peach aphid systemic test on artificial diet in microtiter plates; format: in vivo; conditions: 72 h, adult aphids on treated artificial diet, 3 days, read-out: mortality in comparison with untreated controls
Excerpt: B.2 Green Peach Aphid (Myzus persicae)
For evaluating control of green peach aphid (Myzus persicae) through systemic means the test unit consisted of 96-well-microtiter plates containing liquid artificial diet under an artificial membrane.
The compounds were formulated using a solution containing 75% v/v water and 25% v/v DMSO. Different concentrations of formulated compounds were pipetted into the aphid diet, using a custom built pipetter, at two replications.
After application, 5-8 adult aphids were placed on the artificial membrane inside the microtiter plate wells. The aphids were then allowed to suck on the treated aphid diet and incubated at about 23±1° C. and about 50±5% relative humidity for 3 days. Aphid mortality and fecundity was then visually assessed.

[3] = system: Tobacco Budworm (Heliothis virescens); assay: Tobacco budworm microtiter plate diet test; format: in vivo; conditions: 120 h, sprayed onto insect diet with eggs, egg and larval mortality after 5 days, read-out: mortality in comparison with untreated controls
Procedure: B.5 Tobacco Budworm (Heliothis virescens)
For evaluating control of tobacco budworm (Heliothis virescens) the test unit consisted of 96-well-microtiter plates containing an insect diet and 15-25 H. virescens eggs. The compounds were formulated using a solution containing 75% v/v water and 25% v/v DMSO. Different concentrations of formulated compounds were sprayed onto the insect diet at 10 μl, using a custom built micro atomizer, at two replications.
After application, microtiter plates were incubated at about 28±1° C. and about 80±5% relative humidity for 5 days. Egg and larval mortality was then visually assessed.

[4] = system: Boll Weevil (Anthonomus grandis); assay: Boll weevil microtiter plate diet test; format: in vivo; conditions: 120 h, sprayed onto insect diet with eggs, egg and larval mortality after 5 days, read-out: mortality in comparison with untreated controls
Procedure: B.6 Boll Weevil (Anthonomus grandis)
For evaluating control of boll weevil (Anthonomus grandis) the test unit consisted of 96-well-microtiter plates containing an insect diet and 5-10 A. grandis eggs.
The compounds were formulated using a solution containing 75% v/v water and 25% v/v DMSO. Different concentrations of formulated compounds were sprayed onto the insect diet at 5 μl, using a custom built micro atomizer, at two replications.
After application, microtiter plates were incubated at about 25±1° C. and about 75±5% relative humidity for 5 days. Egg and larval mortality was then visually assessed.

[5] = system: Mediterranean Fruitfly (Ceratitis capitata); assay: Mediterranean fruitfly microtiter plate diet test; conditions: 120 h, read-out: mortality in comparison with untreated controls
[6] = system: Vetch Aphid (Megoura viciae); assay: Vetch aphid broad bean leaf disk test; format: in vivo; conditions: foliar, 120 h, sprayed onto broad bean leaf disks, adult aphids, 5 days, read-out: mortality in comparison with untreated controls
Procedure: B.4 Vetch Aphid (Megoura viciae)
For evaluating control of vetch aphid (Megoura viciae) through contact or systemic means the test unit consisted of 24-well-microtiter plates containing broad bean leaf disks.
The compounds were formulated using a solution containing 75% v/v water and 25% v/v DMSO. Different concentrations of formulated compounds were sprayed onto the leaf disks at 2.5 μl, using a custom built micro atomizer, at two replications.
After application, the leaf disks were air-dried and 5-8 adult aphids placed on the leaf disks inside the microtiter plate wells. The aphids were then allowed to suck on the treated leaf disks and incubated at about 23±1° C. and about 50±5% relative humidity for 5 days. Aphid mortality and fecundity was then visually assessed.

[7] = system: Orchid Thrips (Dichromothrips Corbetti); assay: Orchid thrips floral-immersion test; format: in vivo; conditions: orchid petals dipped, adult thrips, 72 hours after treatment, read-out: mortality in comparison with untreated controls
Procedure: B.7 Orchid Thrips (Dichromothrips Corbetti)
Dichromothrips corbetti adults used for bioassay were obtained from a colony maintained continuously under laboratory conditions. For testing purposes, the test compound is diluted in a 1:1 mixture of acetone:water (vol:vol), plus Kinetic HV at a rate of 0.01% v/v.
Thrips potency of each compound was evaluated by using a floral-immersion technique. All petals of individual, intact orchid flowers were dipped into treatment solution and allowed to dry in Petri dishes. Treated petals were placed into individual resealable plastic along with about 20 adult thrips. All test arenas were held under continuous light and a temperature of about 28° C. for duration of the assay. After 3 days, the numbers of live thrips were counted on each petal. The percent mortality was recorded 72 hours after treatment.

O=C(NCC(F)(F)F)N/N=C/c1ccc(C2=NSC(c3cc(Cl)c(Cl)c(Cl)c3)(C(F)(F)F)C2)c2ccccc12 (stereo not drawn) [Compound 1-1, 1-[(E)-[4-[5-(3,4,5-trichlorophenyl)-5-(trifluoromethyl)-4H-isothiazol-3-yl]-1-naphthyl]methyleneamino]-3-(2,2,2-trifluoroethyl)urea]
≥ 75%: mortality at 500 ppm [1] | mortality at 2500 ppm [2] | mortality at 2500 ppm [3] | mortality at 2500 ppm [4] | mortality at 2500 ppm [5]

O=C(NCC1CC(F)(F)C1)c1ccc(C2=NSC(c3cc(Cl)c(Cl)c(Cl)c3)(C(F)(F)F)C2)c2ccccc12 (stereo not drawn) [Compound 2-1, N-[(3,3-difluorocyclobutyl)methyl]-4-[5-(3,4,5-trichlorophenyl)-5-(trifluoromethyl)-4H-isothiazol-3-yl]naphthalene-1-carboxamide]
≥ 75%: mortality at 500 ppm [1] | mortality at 2500 ppm [2] | mortality at 2500 ppm [6] | mortality at 2500 ppm [3] | mortality at 2500 ppm [4] | mortality at 500 ppm [7] | mortality at 2500 ppm [5]

Source: patent publication US10327446B2, “Naphthyl- or isoquinolinyl-substituted isothiazoline compounds” (BOEHRINGER INGELHEIM ANIMAL HEALTH USA INC., priority 2013, dated 2019)
